From patent publication USRE39088E1, “Amide compounds and use of the same” (Japan Tobacco, Inc., priority 1995, dated 2006)
Where a name gives a salt, the structure may show the parent alone. Read-outs that look alike come from different tables or passages of the source.

Assays:
[1] = tested on: IL-1; test: Suppression of production of inflammatory cytokines: IL-1 in LPS-stimulated human peripheral blood monocytes (ELISA); format: cell-based; conditions: Monocyte, read-out: IC50 (μM) IL-1β
Description: (§1) Suppression of production of inflammatory cytokines
(§2) Thirty ml of human peripheral blood added with heparin was placed on Ficol-Paque (15 ml), and centrifuged at 400 G for 40 minutes at room temperature. The obtained monocyte fraction layers were collected and washed three times with E-MEM medium. The cells were adjusted to a final concentration of 0.5×10^5 cells/800 μl with RPMI-1640 medium containing 5% bovine fetal serum (2-mercaptoethanol), and seeded in a 24 well plant by 800 μl. A test sample (100 μl) was added and 100 μl of lipopolysarcharide (LPS, 100 μg/ml) was added one hour later. The supernatant was taken at 20 hours after stimulation with LPS, and amounts of various cytokines were determined using an ELISA kit.

[2] = tested on: ALT in blood; test: Suppression of LPS/D-galactosamine-induced hepatitis; format: in vivo; conditions: Mus musculus, iv, tail vein, 10 minutes before LPS/D-galactosamine, ALT in blood at 6 hours, male C57BL/6 mice
Description: Suppression of LPS/D-galactosamine-induced hepatitis
LPS (5 μg/kg)D-galactosamine (500 mg/kg) in physiological saline was intraperitoneally injected to male C57BL/6 mice to induce hepatitis. Six hours after the injection of LPS/D-galactosamine in physiological saline, blood was taken from the mice orbital venosus plexus. Plasma was separated from the blood, and ALT in blood was determined by a biochemical analyzer. The test sample was administered from the tail vein at 10 minutes before the injection of LPS/D-galactosamine in physiological saline, and the degree of suppression was investigated. The suppression by the test sample is shown in the ratio relative to the suppression in the control group.
Suppression (%)=100-(ALT amount of group treated with test sample/ALT amount of control group)×100

[3] = tested on: TNF-α; test: Suppression of production of inflammatory cytokines: TNF-α in LPS-stimulated human peripheral blood monocytes (ELISA); format: cell-based; conditions: Monocyte, read-out: IC50 (μM) TNF
Description: as §1, §2

[4] = tested on: TNF α in the peritoneal fluid; test: Suppression of LPS-induced peritonitis; format: in vivo, male Balb/c mice; conditions: test sample 50 mg/kg from the tail vein 60 minutes before LPS i.p.; TNF α in peritoneal fluid one hour after LPS, relative to control group; ** = p<0.01 from control
Description: Suppression of LPS-induced peritonitis
LPS (30 μg/ml, 1 ml) prepared with physiological saline containing 0.5% CMC (carboxymethylcellulose) was infra-peritoneally injected into male Balb/c mice to induce-peritonitis. One hour later, the mice were killed with carbon dioxide, and the amount of TNF α in the peritoneal fluid was determined using an ELISA kit.
The test sample (50 mg/kg) was administered from the tail vein at 60 minutes before LPS injection, and the degree of suppression was investigated. The suppression by the test sample is shown in the ratio relative to the suppression in the control group.
Suppression (%)=100-(TNR amount of group treated with test sample/TNF amount of control group)×100
The results are shown in Table 89 wherein ** means the presence of significant difference by p<0.01 from the control group.

[5] = tested on: IL-8; test: Suppression of production of inflammatory cytokines: IL-8 in LPS-stimulated human peripheral blood monocytes (ELISA); format: cell-based; conditions: supernatant 20 hours after LPS
Description: as §1, §2

[6] = LPS-stimulated human peripheral blood monocytes, supernatant 20 hours after LPS, ELISA

Structure (SMILES)	inhibition in vivo at 10 mg/kg [2] [%]	Inhibition (%) [4]	IC50 ([5]; Homo sapiens, Monocyte, 20 h) [µM]	also measured
CNCCCCOc1c(Cl)cc(C(=O)N[C@@H](Cc2ccccc2)C(=O)OC)c(O)c1Cl.Cl [Example 1, N-[3,5-Dichloro-2-hydroxy-4-(4-methylaminobutoxy)benzoyl]-L-phenylalanine methyl ester hydrochloride]	78	64** %	–	IC50 ([1]; Homo sapiens, 20 h): 0.002 µM; inhibition in vivo at 5 mg/kg ([2]; dose 5 mg/kg): 88%; IC50 ([3]; Homo sapiens, 20 h): 0.008 µM; IC50 ([5]; Monocyte): 0.009 µM
CCSC(=O)C(Cc1ccccc1)NC(=O)c1cc(Cl)c(OCCCCN)c(Cl)c1O.Cl (stereo not shown) [Example 52]	–	31** %	< 0.01	–
CCOC(=O)C(Cc1ccccc1)NC(=O)c1cc(Cl)c(OCCCCN)c(Cl)c1O.Cl (stereo not shown) [Example 19]	–	32** %	< 0.01	–
COC(=O)[C@H](Cc1ccccc1)NC(=O)c1ccc(OCCCCN)cc1O.Cl [Example 4]	42	38** %	2	IC50 [1, 6]: 3 µM; IC50 [3, 6]: 2 µM
CNCCCCOc1cc(O)c(C(=O)N[C@@H](Cc2ccccc2)C(=O)OC)cc1Cl.Cl [Example 9]	–	21%	< 0.3	–
CCOC(=O)[C@H](Cc1ccccc1)NC(=O)c1ccc(-c2noc(CCCCNC)n2)cc1O.Cl [Example 148, (2S)-3-Phenyl-2-[4-[5-(4-methylaminobutyl)-1,2,4-oxadizol-3-yl]-2-hydroxybenzoylamino]propionic acid ethyl ester hydrochloride]	–	19%	–	IC50 [5]: 4 µM
CNCCCCOc1c(Cl)cc(C(=O)N[C@@H](Cc2ccccc2)C(=O)OC)c(OC(=O)c2ccccc2)c1Cl [Example 105, N-[2-Benzoyloxy-3,5-dichloro-4-(4-methylaminobutoxy)benzoyl]-L-phenylalanine methyl ester hydrochloride]	40	–	0.005	IC50 [1, 6]: 0.001 µM; IC50 [3, 6]: 0.004 µM
CCOC(=O)[C@H](Cc1ccccc1)NC(=O)c1cc(Cl)c(OC(=O)CCN2CCNCC2)c(Cl)c1O [Example 155, N-[3,5-Dichloro-2-hydroxy-4-(3-piperazinylpropionyloxy)benzoyl]-L-phenylalanine ethyl ester dihydrochloride]	–	28** %	–	IC50 ([5]; Monocyte): 0.2 µM
